Common to all, as to assay type: cell-based
Test [1] has as its target T1, Nuclear factor NF-kappa-B complex (Homo sapiens) (UniProt Q00653+P19838+Q04206). As to the kind of experiment: Inhibition of LPS-induced NF-kappaB (unknown origin) expressed in HEK293 cells at 10 ug/ml after 4 hrs by luciferase reporter gene assay relative to LPS-treated control.
The target in test [2] is T1, Nuclear factor NF-kappa-B complex (Homo sapiens). As to the kind of experiment: Inhibition of LPS-induced NF-kappaB (unknown origin) expressed in HEK293 cells at 100 ug/ml after 4 hrs by luciferase reporter gene assay relative to LPS-treated control. (Reporter assays use an easily measured gene product as a stand-in for the process of interest.)
Test [3] shares this target. As to the kind of experiment: Inhibition of LPS-induced NF-kappaB (unknown origin) expressed in HEK293 cells at 1 ug/ml after 4 hrs by luciferase reporter gene assay relative to LPS-treated control.

T1 sequence (P19838 whole entry, looked up): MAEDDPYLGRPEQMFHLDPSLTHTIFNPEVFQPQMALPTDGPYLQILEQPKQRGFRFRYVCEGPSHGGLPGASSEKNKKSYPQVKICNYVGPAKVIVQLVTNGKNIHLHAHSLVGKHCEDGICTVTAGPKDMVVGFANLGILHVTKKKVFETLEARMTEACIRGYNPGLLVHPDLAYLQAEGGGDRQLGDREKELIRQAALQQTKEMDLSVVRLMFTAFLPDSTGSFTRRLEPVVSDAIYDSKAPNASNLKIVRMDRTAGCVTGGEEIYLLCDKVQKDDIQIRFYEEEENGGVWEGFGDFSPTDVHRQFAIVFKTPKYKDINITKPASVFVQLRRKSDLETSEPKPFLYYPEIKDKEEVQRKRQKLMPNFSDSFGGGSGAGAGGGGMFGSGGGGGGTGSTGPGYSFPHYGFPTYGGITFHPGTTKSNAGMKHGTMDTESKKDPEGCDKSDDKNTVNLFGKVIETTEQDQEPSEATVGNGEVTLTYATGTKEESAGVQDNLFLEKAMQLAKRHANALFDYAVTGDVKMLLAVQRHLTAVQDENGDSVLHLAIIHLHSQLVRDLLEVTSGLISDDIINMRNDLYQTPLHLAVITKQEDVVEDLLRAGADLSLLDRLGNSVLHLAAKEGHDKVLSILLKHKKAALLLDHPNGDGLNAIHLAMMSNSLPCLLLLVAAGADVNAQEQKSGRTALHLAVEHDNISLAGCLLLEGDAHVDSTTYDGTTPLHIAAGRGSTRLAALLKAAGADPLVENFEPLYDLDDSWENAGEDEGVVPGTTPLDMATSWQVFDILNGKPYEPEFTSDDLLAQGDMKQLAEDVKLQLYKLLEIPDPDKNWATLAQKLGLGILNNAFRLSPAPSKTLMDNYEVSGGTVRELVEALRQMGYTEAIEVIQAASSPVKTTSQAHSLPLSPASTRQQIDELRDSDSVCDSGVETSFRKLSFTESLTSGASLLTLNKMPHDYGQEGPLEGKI
T1 sequence (Q00653 whole entry, looked up): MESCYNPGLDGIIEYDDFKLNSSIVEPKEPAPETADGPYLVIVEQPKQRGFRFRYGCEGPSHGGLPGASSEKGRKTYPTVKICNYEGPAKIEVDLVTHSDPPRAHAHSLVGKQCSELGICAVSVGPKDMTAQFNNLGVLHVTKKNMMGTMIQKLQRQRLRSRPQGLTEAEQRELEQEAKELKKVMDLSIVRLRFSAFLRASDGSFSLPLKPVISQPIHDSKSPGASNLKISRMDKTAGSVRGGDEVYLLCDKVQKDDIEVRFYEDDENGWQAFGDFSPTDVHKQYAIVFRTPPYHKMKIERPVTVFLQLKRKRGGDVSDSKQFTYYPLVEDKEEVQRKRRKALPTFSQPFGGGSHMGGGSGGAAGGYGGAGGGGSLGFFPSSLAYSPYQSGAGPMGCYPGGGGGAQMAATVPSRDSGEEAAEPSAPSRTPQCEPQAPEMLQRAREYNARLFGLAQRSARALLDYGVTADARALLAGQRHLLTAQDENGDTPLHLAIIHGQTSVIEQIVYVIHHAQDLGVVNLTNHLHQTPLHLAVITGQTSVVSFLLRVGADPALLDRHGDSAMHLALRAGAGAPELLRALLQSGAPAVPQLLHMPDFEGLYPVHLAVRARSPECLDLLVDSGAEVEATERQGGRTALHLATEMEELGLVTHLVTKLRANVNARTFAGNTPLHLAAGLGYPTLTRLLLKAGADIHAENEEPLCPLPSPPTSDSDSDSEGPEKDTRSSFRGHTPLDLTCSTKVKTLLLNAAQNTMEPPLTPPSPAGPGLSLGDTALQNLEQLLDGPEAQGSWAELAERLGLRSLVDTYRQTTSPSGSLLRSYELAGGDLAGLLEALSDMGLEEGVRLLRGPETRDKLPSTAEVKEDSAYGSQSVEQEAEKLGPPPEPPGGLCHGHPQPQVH
T1 sequence (Q04206 whole entry, looked up): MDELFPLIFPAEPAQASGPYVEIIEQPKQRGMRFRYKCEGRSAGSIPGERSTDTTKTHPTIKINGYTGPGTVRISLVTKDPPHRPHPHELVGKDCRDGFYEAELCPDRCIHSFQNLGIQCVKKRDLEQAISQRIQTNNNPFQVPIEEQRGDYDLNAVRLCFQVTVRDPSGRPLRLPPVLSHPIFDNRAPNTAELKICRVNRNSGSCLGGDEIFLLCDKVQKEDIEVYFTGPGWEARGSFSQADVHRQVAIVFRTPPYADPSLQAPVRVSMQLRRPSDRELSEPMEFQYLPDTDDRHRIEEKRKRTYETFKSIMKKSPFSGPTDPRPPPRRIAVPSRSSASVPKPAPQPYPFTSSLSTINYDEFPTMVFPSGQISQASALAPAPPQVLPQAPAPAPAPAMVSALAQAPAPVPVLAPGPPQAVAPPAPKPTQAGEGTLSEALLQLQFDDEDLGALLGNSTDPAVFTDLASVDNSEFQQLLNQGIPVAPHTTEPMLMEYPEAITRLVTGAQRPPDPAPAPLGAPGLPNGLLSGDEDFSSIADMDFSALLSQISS

`CC/C(O)=C1/C(=O)O[C@@H]2[C@@]3(O)[C@@H](OC(C)=O)[C@@]4(C)C[C@]35OC3(C)O[C@]26[C@H]1[C@](C)([C@@H](OC(C)=O)c1ccoc1)[C@@H](OC(C)=O)[C@@H](OC(C)=O)[C@]6(O3)[C@]5(COC(C)=O)[C@H]4CC(=O)OC`: the Ratio was found to be 0.27 in test [1], 0.45 in test [2] and 0.13 in test [3].

Regarding `CC(=O)O[C@@H]1[C@H](OC(C)=O)[C@@](C)([C@@H](OC(C)=O)c2ccoc2)[C@H]2CC3(C(C)C)O[C@@H]4[C@@]5(OC(C)=O)[C@@H](OC(C)=O)[C@@]6(C)C[C@@]5(O)[C@]5(COC(=O)C[C@@H]65)[C@]1(O)[C@@]24O3`, the Ratio worked out at 0.25 in test [1], 0.3 in test [2] and 0.17 in test [3].

Turning to `C[C@]12CCC(=O)C=C1CC[C@@H]1[C@@H]2[C@@H](O)C[C@@]2(C)[C@H]1CC[C@]2(O)C(=O)CO`, the figures for the Ratio in test [1], in test [2] and in test [3] were 0.37, 0.6 and 0.29, respectively.

As to `COC(=O)C[C@H]1[C@]2(C)C[C@]3(O)[C@@](OC(C)=O)([C@H]4OC5(C)C[C@@H]6[C@](C)([C@@H](OC(C)=O)c7ccoc7)[C@@H](OC(C)=O)[C@@H](OC(C)=O)[C@@](O)([C@@]64O5)[C@]13COC(C)=O)[C@H]2OC(C)=O`, the results for the Ratio in test [1], in test [2] and in test [3] were 0.34, 0.8 and 0.23, respectively.

For the compound `COC(=O)[C@H](O)[C@H]1[C@]2(C)C[C@]3(O)[C@@](O)([C@@H](OC(=O)C(C)C)[C@]45OC6(C)O[C@H]([C@H](OC(C)=O)[C@]78C[C@@]74[C@@H](OC(C)=O)C(=O)O[C@H]8c4ccoc4)[C@]5(O6)[C@]13C)[C@H]2OC(C)=O`, the results for the Ratio in test [1], in test [2] and in test [3] were 0.15, 0.34 and 0.22, respectively.

With `CCC12C[C@@H]3[C@](C)([C@@H](OC(C)=O)c4ccoc4)[C@@H](OC(C)=O)[C@@H](OC(C)=O)[C@@]4(O)[C@]3(O1)[C@H](O2)[C@@]1(OC(C)=O)[C@@H](OC(C)=O)[C@@]2(C)C[C@@]1(O)[C@@]4(C)[C@H]2CC(=O)OC`, the Ratio worked out at 0.39 in test [1], 0.75 in test [2] and 0.61 in test [3].

In the case of `CCC12C[C@@H]3[C@](C)([C@@H](OC(C)=O)c4ccoc4)[C@@H](O)[C@@H](O)[C@@]4(O)[C@]3(O1)[C@H](O2)[C@@]1(OC(C)=O)[C@@H](OC(C)=O)[C@@]2(C)C[C@@]1(O)[C@]41COC(=O)C[C@@H]21`, the Ratio in test [1] was found to be 0.48; in test [2] it was 0.59; in test [3] it was 0.33.

As for `CCC12C[C@@H]3[C@](C)([C@@H](OC(C)=O)c4ccoc4)[C@@H](O)[C@@H](OC(C)=O)[C@@]4(O)[C@]3(O1)[C@H](O2)[C@@]1(OC(C)=O)[C@@H](O)[C@@]2(C)C[C@@]1(O)[C@@]4(C)[C@H]2[C@@H](O)C(=O)OC`, the Ratio in test [1] stood at 0.23; in test [2] it was 0.3; in test [3], 0.1.

For `COC(=O)[C@H](OC(C)=O)[C@H]1[C@]2(C)C[C@]3(O)[C@@](OC(=O)C(C)C)([C@H]4OC5(C)O[C@@]6([C@H](O)[C@H](OC(C)=O)[C@]78C[C@]7([C@@H](OC(C)=O)C(=O)O[C@H]8c7ccoc7)[C@@]46O5)[C@]13C)[C@H]2OC(C)=O`, the Ratio amounted to 0.05 in test [1], 0.24 in test [2] and 0.13 in test [3].

With `COC(=O)[C@H](OC(C)=O)[C@H]1[C@]2(C)C[C@]3(O)[C@@](O)([C@H]4OC(=O)[C@@H]5O[C@@H](c6ccoc6)[C@@]67C[C@@]56[C@]4(O)[C@](O)([C@H](OC(=O)C(C)C)[C@@H]7OC(C)=O)[C@]13C)[C@H]2OC(C)=O`, the Ratio in test [1] came out at 0.27; in test [2] it was 0.3; in test [3], 0.14.

As for `COC(=O)C[C@H]1[C@]2(C)C[C@@]34OC5(C)O[C@]6([C@@H]7/C(=C(\C)O)C(=O)O[C@@H](c8ccoc8)[C@]7(C)[C@@H](OC(C)=O)[C@@H](O)[C@]6(O5)[C@]13COC(C)=O)[C@H](OC(C)=O)[C@@]4(OC(C)=O)[C@H]2OC(C)=O`, the Ratio in test [1] is 0.33; in test [2] it was 0.62; in test [3], 0.25.

As for `CCC12C[C@@H]3[C@](C)([C@@H](OC(C)=O)c4ccoc4)[C@@H](OC(C)=O)[C@@H](OC(C)=O)[C@@]4(O)[C@]3(O1)[C@H](O2)[C@@]1(OC(C)=O)[C@@H](OC(C)=O)[C@@]2(C)C[C@@]1(O)[C@@]4(COC(C)=O)[C@H]2CC(=O)OC`, the Ratio in test [1] was 0.38; in test [2], 0.53; in test [3], 0.36.

Consider `CCC12C[C@@H]3[C@](C)([C@@H](OC(C)=O)c4ccoc4)[C@@H](OC(C)=O)[C@@H](OC(C)=O)[C@@]4(O)[C@]3(O1)[C@H](O2)[C@@]1(O)[C@@H](OC(C)=O)[C@@]2(C)C[C@@]1(O)[C@@]4(C)[C@H]2CC(=O)OC`, for which the figures for the Ratio in test [1], in test [2] and in test [3] were 0.08, 0.17 and 0.12, respectively.

Consider `CC/C(O)=C1/C(=O)O[C@@H]2[C@@]3(O)[C@@H](OC(C)=O)[C@@]4(C)C[C@]35OC3(C)O[C@]26[C@H]1[C@](C)([C@@H](OC(C)=O)c1ccoc1)[C@@H](OC(C)=O)[C@@H](O)[C@]6(O3)[C@]5(COC(C)=O)[C@H]4CC(=O)OC`, for which the Ratio is 0.3 in test [1], 0.35 in test [2] and 0.23 in test [3].

For the compound `CC/C(O)=C1/C(=O)O[C@@H]2[C@@]3(OC(C)=O)[C@@H](OC(C)=O)[C@@]4(C)C[C@]35OC3(C)O[C@]26[C@H]1[C@](C)([C@@H](OC(C)=O)c1ccoc1)[C@@H](OC(C)=O)[C@@H](O)[C@]6(O3)[C@]5(COC(C)=O)[C@H]4CC(=O)OC`, the Ratio in test [1] was 0.33; in test [2] it was 0.45; in test [3], 0.23.

In the case of `CC/C(O)=C1/C(=O)O[C@@H]2[C@@]3(O)[C@@H](OC(C)=O)[C@@]4(C)C[C@]35OC3(C)O[C@]26[C@H]1[C@](C)([C@@H](OC(C)=O)c1ccoc1)[C@@H](OC(=O)C(C)C)[C@@H](OC(=O)C(C)C)[C@]6(O3)[C@@]51COC(=O)C[C@@H]41`, the results for the Ratio in test [1], in test [2] and in test [3] were 0.18, 0.29 and 0.11, respectively.

On to `CCC(=O)O[C@@H]1[C@@]2(O)[C@@H](OC(C)=O)[C@@]3(C)C[C@]24OC2(C)O[C@]15[C@@H]1CC(=O)O[C@@H](c6ccoc6)[C@]1(C)[C@@H](OC(C)=O)[C@@H](O)[C@]5(O2)[C@]4(COC(C)=O)[C@H]3CC(=O)OC`, for which the Ratio in test [1] came to 0.26; in test [2], 0.32; in test [3], 0.18.

Turning to `COC(=O)[C@H](OC(C)=O)[C@H]1[C@]2(C)C[C@]3(O)[C@@](OC(=O)C(C)C)([C@H]4OC5(C)O[C@@]6([C@H](O)[C@H](O)[C@]78C[C@]7([C@@H](OC(C)=O)C(=O)O[C@H]8c7ccoc7)[C@@]46O5)[C@]13C)[C@H]2OC(C)=O`, the results for the Ratio in test [1], in test [2] and in test [3] were 0.32, 0.44 and 0.09, respectively.

Turning to `CCC1=C[C@@H]2[C@](C)([C@@H](OC(C)=O)c3ccoc3)[C@@H](OC(C)=O)[C@@H](OC(C)=O)[C@@]34OC(=O)O[C@@]23[C@H](O1)[C@@]1(O)[C@@H](O)[C@@]2(C)C[C@@]1(O)[C@@]4(C)[C@H]2CC(=O)OC`, the Ratio in test [1] was 0.14; in test [2] it was 0.26; in test [3] it was 0.16.

For `CCC12C[C@@H]3[C@](C)([C@@H](OC(C)=O)c4ccoc4)[C@@H](OC(C)=O)[C@@H](OC(C)=O)[C@@]4(O)[C@]3(O1)[C@H](O2)[C@@]1(OC(C)=O)[C@@H](OC(C)=O)[C@@]2(C)C[C@@]1(O)[C@]41COC(=O)C[C@@H]21`, the Ratio is 0.34 in test [1], 0.31 in test [2] and 0.09 in test [3].

The record behind these values is ChEMBL document CHEMBL3351801, “Phragmalin-type limonoids with NF-κB inhibition from Chukrasia tabularis var. velutina” (Bioorg Med Chem Lett, 2014).
